PubChem BioAssay AID328 (DTP/NCI, 2004)
“And” between values parts separate entries of the source, which are not always exact repeats. Equal entries are not always repeated. Inconclusive results and toxic doses are left out. How the source made its calls: active means survival T/C of 150% or more; inactive means T/C below 125% in these data.

System: BDF1 mice, P388 leukemia ip, median survival T/C
Test: NCI In Vivo Anticancer Drug Screen. Data for tumor model P388 Leukemia (intraperitoneal) in B6D2F1 (BDF1) mice
Conditions: endpoint: median survival time, higher = longer survival
Outline: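 Survival ratio, drug arm over vehicle arm, in mice with a transplanted tumour.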

[1] = dose: 200.0 mg/kg/injection, schedule: Q04DX003 (ip), vehicle: Klucel (hydroxypropylcellulose) (HPC)
[2] = dose: 400.0 mg/kg/injection, schedule: Q04DX003 (ip), vehicle: Klucel (hydroxypropylcellulose) (HPC)
[3] = dose: 50.0 mg/kg/injection, schedule: Q01DX009 (ip), vehicle: saline with Tween-80
[4] = dose: 100.0 mg/kg/injection, schedule: Q01DX009 (ip), vehicle: saline with Tween-80
[5] = dose: 200.0 mg/kg/injection, schedule: Q01DX009 (ip), vehicle: saline with Tween-80
[6] = dose: 200.0 mg/kg/injection, schedule: Q01DX001 (ip), vehicle: Klucel (hydroxypropylcellulose) (HPC)
[7] = dose: 400.0 mg/kg/injection, schedule: Q01DX001 (ip), vehicle: Klucel (hydroxypropylcellulose) (HPC)
[8] = dose: 200.0 mg/kg/injection, schedule: Q01DX009 (ip), vehicle: saline
[9] = dose: 100.0 mg/kg/injection, schedule: Q04DX003 (ip), vehicle: Klucel (hydroxypropylcellulose) (HPC)

Measured: T/C

CC(=O)[O][Hg][c]1cc(-c2ccc(N=Nc3c(S(=O)(=O)O)cc4cccc(N)c4c3O)cc2)ccc1N=Nc1c(S(=O)(=O)O)cc2cccc(N)c2c1O
inactive: dose: 1.5 mg/kg/injection, schedule: Q01DX009 (ip), vehicle: saline with Tween-80 100 % of control | dose: 3.0 mg/kg/injection, schedule: Q01DX009 (ip), vehicle: saline with Tween-80 100 % of control | dose: 6.0 mg/kg/injection, schedule: Q01DX009 (ip), vehicle: saline with Tween-80 95 % of control

C=C(Cl)c1c(C)cc(C)c(CC#N)c1C
inactive: dose: 12.5 mg/kg/injection, schedule: Q04DX003 (ip), vehicle: DMSO 100 % of control | dose: 25.0 mg/kg/injection, schedule: Q04DX003 (ip), vehicle: DMSO 113 % of control | dose: 50.0 mg/kg/injection, schedule: Q04DX003 (ip), vehicle: DMSO 100 % of control

CCCC[N+](CCCC)(CCCC)CCCC.Cc1ccc([SH2+])c([SH2+])c1.Cc1ccc([SH2+])c([SH2+])c1.[Fe+3]
inactive: dose: 45.0 mg/kg/injection, schedule: Q04DX003 (ip), vehicle: Klucel (hydroxypropylcellulose) (HPC) 109 % of control | dose: 65.0 mg/kg/injection, schedule: Q04DX003 (ip), vehicle: Klucel (hydroxypropylcellulose) (HPC) 118 % of control | dose: 100.0 mg/kg/injection, schedule: Q01DX001 (ip), vehicle: other 112 % of control | dose: 150.0 mg/kg/injection, schedule: Q04DX003 (ip), vehicle: Klucel (hydroxypropylcellulose) (HPC) 118 % of control | dose: 200.0 mg/kg/injection, schedule: Q01DX001 (ip), vehicle: other 112 % of control | [1] 90 % of control and 120 % of control | dose: 400.0 mg/kg/injection, schedule: Q01DX001 (ip), vehicle: other 108 % of control | [2] 120 % of control

N#Cc1ccc(C(=O)/C=C/c2ccc(OCc3ccccc3)cc2)cc1
inactive: [3] 91 % of control | [4] 89 % of control | [5] 91 % of control

COc1ccc(C(=O)C(C)C(O)(C(F)(F)F)C(F)(F)F)cc1 (stereo not given)
inactive: dose: 100.0 mg/kg/injection, schedule: Q01DX001 (ip), vehicle: Klucel (hydroxypropylcellulose) (HPC) 109 % of control | [6] 109 % of control | [7] 109 % of control

CCSC(C(O)C(O)C(O)C(O)CO)n1ccc(=O)[nH]c1=O (stereo not given)
inactive: dose: 12.5 mg/kg/injection, schedule: Q01DX001 (ip), vehicle: saline 100 % of control | dose: 25.0 mg/kg/injection, schedule: Q01DX001 (ip), vehicle: saline 100 % of control | dose: 50.0 mg/kg/injection, schedule: Q01DX001 (ip), vehicle: saline 100 % of control

CC(=O)OC1CCC2(C)C(CCc3ccoc3)=C(C)C(=O)CC2C1(C)C (stereo not given)
inactive: dose: 10.0 mg/kg/injection, schedule: Q01DX009 (ip), vehicle: saline + alcohol 105 % of control | dose: 20.0 mg/kg/injection, schedule: Q01DX009 (ip), vehicle: saline + alcohol 115 % of control | dose: 40.0 mg/kg/injection, schedule: Q01DX009 (ip), vehicle: saline + alcohol 105 % of control

COc1cccc2c1C(=O)c1c(O)c3c(c(O)c1C2=O)CC(O)(C(C)=O)CC3O (stereo not given)
inactive: dose: 1.25 mg/kg/injection, schedule: Q01DX001 (ip), vehicle: saline 95 % of control and 104 % of control | dose: 2.5 mg/kg/injection, schedule: Q01DX001 (ip), vehicle: saline 100 % of control and 110 % of control | dose: 5.0 mg/kg/injection, schedule: Q01DX001 (ip), vehicle: saline 100 % of control | dose: 10.0 mg/kg/injection, schedule: Q01DX001 (ip), vehicle: saline 100 % of control and 109 % of control

N=Cc1c(O)[nH]c(=O)[nH]c1=O
inactive: dose: 100.0 mg/kg/injection, schedule: Q01DX009 (ip), vehicle: saline 109 % of control | dose: 100.0 mg/kg/injection, schedule: Q04DX003 (ip), vehicle: saline 92 % of control | [8] 109 % of control | dose: 200.0 mg/kg/injection, schedule: Q04DX003 (ip), vehicle: saline 107 % of control | dose: 400.0 mg/kg/injection, schedule: Q01DX009 (ip), vehicle: saline 118 % of control | dose: 400.0 mg/kg/injection, schedule: Q04DX003 (ip), vehicle: saline 92 % of control

CN(C(=S)SSC(=S)N(C)c1ccccc1)c1ccccc1
inactive: dose: 12.5 mg/kg/injection, schedule: Q01DX009 (ip), vehicle: saline with Tween-80 98 % of control | dose: 25.0 mg/kg/injection, schedule: Q01DX009 (ip), vehicle: saline with Tween-80 99 % of control | [3] 100 % of control | [4] 92 % of control | [6] 91 % of control | [7] 95 % of control

CCOc1ccc(C(/C(Cl)=N/O)C(Cl)(Cl)Cl)cc1 (stereo not given)
inactive: dose: 5.5 mg/kg/injection, schedule: Q01DX009 (ip), vehicle: Klucel (hydroxypropylcellulose) (HPC) 109 % of control | dose: 6.25 mg/kg/injection, schedule: Q04DX003 (ip), vehicle: Klucel (hydroxypropylcellulose) (HPC) 100 % of control | dose: 8.2 mg/kg/injection, schedule: Q01DX009 (ip), vehicle: Klucel (hydroxypropylcellulose) (HPC) 100 % of control | dose: 12.5 mg/kg/injection, schedule: Q04DX003 (ip), vehicle: Klucel (hydroxypropylcellulose) (HPC) 95 % of control | dose: 25.0 mg/kg/injection, schedule: Q04DX003 (ip), vehicle: Klucel (hydroxypropylcellulose) (HPC) 100 % of control | dose: 35.0 mg/kg/injection, schedule: Q04DX003 (ip), vehicle: Klucel (hydroxypropylcellulose) (HPC) 120 % of control | dose: 55.0 mg/kg/injection, schedule: Q04DX003 (ip), vehicle: Klucel (hydroxypropylcellulose) (HPC) 110 % of control | dose: 80.0 mg/kg/injection, schedule: Q04DX003 (ip), vehicle: Klucel (hydroxypropylcellulose) (HPC) 110 % of control | dose: 120.0 mg/kg/injection, schedule: Q04DX003 (ip), vehicle: Klucel (hydroxypropylcellulose) (HPC) 100 % of control

C[C@]12CC[C@H]3C(=CCc4cc(O)ccc43)[C@@H]1CCC2=O
inactive: [9] 95 % of control | dose: 200.0 mg/kg/injection, schedule: Q01DX009 (ip), vehicle: Klucel (hydroxypropylcellulose) (HPC) 91 % of control | [1] 90 % of control | [2] 95 % of control

COc1cc2c(cc1OC)C(=O)N(C)CC2
inactive: dose: 50.0 mg/kg/injection, schedule: Q01DX009 (ip), vehicle: saline 105 % of control | dose: 100.0 mg/kg/injection, schedule: Q01DX009 (ip), vehicle: water 97 % of control | [8] 119 % of control

CC1(O)c2cccc3c2C2(O)c4c1cccc4C(C)(O)c1cccc(c12)C3(C)O (stereo not given)
inactive: dose: 50.0 mg/kg/injection, schedule: Q04DX003 (ip), vehicle: Klucel (hydroxypropylcellulose) (HPC) 100 % of control | [9] 105 % of control | [1] 105 % of control

O=C(NOCc1cc2c(cc1Cl)OCO2)c1ccc(S(=O)(=O)F)cc1
inactive: dose: 100.0 mg/kg/injection, schedule: Q01DX001 (ip), vehicle: saline sonified 104 % of control | dose: 200.0 mg/kg/injection, schedule: Q01DX001 (ip), vehicle: saline sonified 86 % of control | dose: 400.0 mg/kg/injection, schedule: Q01DX001 (ip), vehicle: saline sonified 86 % of control

CC(C)=CCC/C(C)=C/CN1C(=O)c2ccccc2C1=O
inactive: [4] 92 % of control | dose: 100.0 mg/kg/injection, schedule: Q04DX003 (ip), vehicle: saline with Tween-80 87 % of control | [5] 92 % of control | dose: 200.0 mg/kg/injection, schedule: Q04DX003 (ip), vehicle: saline with Tween-80 96 % of control | dose: 400.0 mg/kg/injection, schedule: Q01DX009 (ip), vehicle: saline with Tween-80 108 % of control | dose: 400.0 mg/kg/injection, schedule: Q04DX003 (ip), vehicle: saline with Tween-80 94 % of control
